# Source: BindingDB's records for doi:10.1016/s0960-894x(98)00149-8 (University of Bristol, 1999)
# Assays:
# [1] = target: N-succinyl-diaminopimelate aminotransferase (Escherichia coli); assay: Compound was tested for binding affinity against N-Succinyl Diaminopimelic Acid Aminotransferase from Escherichia coli
# [2] = target: N-succinyl-diaminopimelate aminotransferase (Escherichia coli); assay: as above; remark: listed apart in the source
# [3] = target: N-succinyl-diaminopimelate aminotransferase (Escherichia coli); assay: Compound was tested for 50% inhibition of N-Succinyl Diaminopimelic Acid Aminotransferase (DAP-AT) from Escherichia coli.
IC50 [1] [µM],Ki [2] [µM],IC50 [3] [µM],Compound
0.5,0.022,–,NNC(CCC[C@H](NC(=O)CCC(=O)O)C(=O)O)C(=O)O (stereo partly drawn) [(S)-2-(3-Carboxy-propionylamino)-6-hydrazino-heptanedioic acid]
–,0.169,0.8,CC(=O)N[C@@H](CC(=O)O)C(=O)N[C@@H](CCCC(NN)C(=O)O)C(=O)O (stereo partly drawn) [(S)-2-((S)-2-Acetylamino-3-carboxy-propionylamino)-6-hydrazino-heptanedioic acid]
> 50000,–,–,CC(=O)N[C@@H](Cc1ccccc1)C(=O)N[C@@H](CCCC(=O)C(=O)O)C(=O)O [dilithium 2-[1-methylcarboxamido-2-phenyl-(1S)-ethylcarboxamido]-6-oxo-(2S)-heptanedioate]
